Laboratory results taken from ChEMBL document CHEMBL1146304, “Alpha-methyltryptamine sulfonamide derivatives as novel glucocorticoid receptor ligands” (Bioorg Med Chem Lett, 2007).

Tests used:
[1] = target: T1, Glucocorticoid receptor (Homo sapiens, UniProt P04150)
T1 sequence (P04150 whole entry): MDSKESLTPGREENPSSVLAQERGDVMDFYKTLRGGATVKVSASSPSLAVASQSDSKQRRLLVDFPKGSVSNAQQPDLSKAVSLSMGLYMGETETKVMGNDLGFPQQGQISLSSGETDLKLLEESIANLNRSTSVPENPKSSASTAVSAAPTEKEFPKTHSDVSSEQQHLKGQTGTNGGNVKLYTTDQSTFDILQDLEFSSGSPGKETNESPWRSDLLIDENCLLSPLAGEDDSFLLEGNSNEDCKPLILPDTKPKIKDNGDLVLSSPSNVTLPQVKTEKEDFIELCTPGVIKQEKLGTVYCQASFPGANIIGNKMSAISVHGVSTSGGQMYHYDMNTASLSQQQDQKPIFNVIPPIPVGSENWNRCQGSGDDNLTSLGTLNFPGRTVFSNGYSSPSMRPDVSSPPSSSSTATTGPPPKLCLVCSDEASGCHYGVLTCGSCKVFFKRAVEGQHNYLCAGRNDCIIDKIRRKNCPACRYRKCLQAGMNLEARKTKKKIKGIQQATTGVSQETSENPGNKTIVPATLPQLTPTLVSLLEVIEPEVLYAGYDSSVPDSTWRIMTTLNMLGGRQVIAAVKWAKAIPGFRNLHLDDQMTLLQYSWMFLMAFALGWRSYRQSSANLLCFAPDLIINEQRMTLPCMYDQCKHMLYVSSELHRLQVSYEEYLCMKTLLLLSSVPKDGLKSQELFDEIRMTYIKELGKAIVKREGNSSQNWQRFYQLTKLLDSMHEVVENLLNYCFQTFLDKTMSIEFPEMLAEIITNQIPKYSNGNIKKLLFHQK

[2] = target: T2, Mineralocorticoid receptor (Homo sapiens, UniProt P08235); assay: Inhibition of human MR
T2 sequence (P08235 whole entry): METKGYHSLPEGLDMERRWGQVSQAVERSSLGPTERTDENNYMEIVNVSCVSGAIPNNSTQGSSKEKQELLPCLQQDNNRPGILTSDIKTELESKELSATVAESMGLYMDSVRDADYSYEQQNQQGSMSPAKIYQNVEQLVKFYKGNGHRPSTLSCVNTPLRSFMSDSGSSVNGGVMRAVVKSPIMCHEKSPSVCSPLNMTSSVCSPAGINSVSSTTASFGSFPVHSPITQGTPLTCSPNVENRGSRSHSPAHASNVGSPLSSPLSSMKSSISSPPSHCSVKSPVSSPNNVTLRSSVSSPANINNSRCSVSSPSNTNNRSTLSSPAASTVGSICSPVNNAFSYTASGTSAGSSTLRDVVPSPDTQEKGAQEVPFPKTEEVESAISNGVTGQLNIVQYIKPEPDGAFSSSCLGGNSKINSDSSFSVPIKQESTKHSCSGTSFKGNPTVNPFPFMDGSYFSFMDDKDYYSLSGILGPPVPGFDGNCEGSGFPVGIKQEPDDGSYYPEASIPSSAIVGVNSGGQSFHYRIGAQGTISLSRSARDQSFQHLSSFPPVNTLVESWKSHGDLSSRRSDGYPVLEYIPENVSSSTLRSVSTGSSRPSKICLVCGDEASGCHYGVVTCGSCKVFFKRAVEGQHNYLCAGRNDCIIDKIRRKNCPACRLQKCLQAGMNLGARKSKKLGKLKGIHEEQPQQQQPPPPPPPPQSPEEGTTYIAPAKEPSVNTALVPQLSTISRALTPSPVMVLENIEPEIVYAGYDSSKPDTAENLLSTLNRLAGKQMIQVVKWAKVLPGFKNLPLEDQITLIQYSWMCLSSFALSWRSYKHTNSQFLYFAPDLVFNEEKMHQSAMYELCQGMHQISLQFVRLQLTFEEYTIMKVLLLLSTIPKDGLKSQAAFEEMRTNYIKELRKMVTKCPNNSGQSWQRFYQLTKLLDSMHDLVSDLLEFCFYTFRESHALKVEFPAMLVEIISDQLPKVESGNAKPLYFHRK

[3] = target: T3, Progesterone receptor (Homo sapiens, UniProt P06401); assay: Inhibition of human PR
T3 sequence (P06401 whole entry): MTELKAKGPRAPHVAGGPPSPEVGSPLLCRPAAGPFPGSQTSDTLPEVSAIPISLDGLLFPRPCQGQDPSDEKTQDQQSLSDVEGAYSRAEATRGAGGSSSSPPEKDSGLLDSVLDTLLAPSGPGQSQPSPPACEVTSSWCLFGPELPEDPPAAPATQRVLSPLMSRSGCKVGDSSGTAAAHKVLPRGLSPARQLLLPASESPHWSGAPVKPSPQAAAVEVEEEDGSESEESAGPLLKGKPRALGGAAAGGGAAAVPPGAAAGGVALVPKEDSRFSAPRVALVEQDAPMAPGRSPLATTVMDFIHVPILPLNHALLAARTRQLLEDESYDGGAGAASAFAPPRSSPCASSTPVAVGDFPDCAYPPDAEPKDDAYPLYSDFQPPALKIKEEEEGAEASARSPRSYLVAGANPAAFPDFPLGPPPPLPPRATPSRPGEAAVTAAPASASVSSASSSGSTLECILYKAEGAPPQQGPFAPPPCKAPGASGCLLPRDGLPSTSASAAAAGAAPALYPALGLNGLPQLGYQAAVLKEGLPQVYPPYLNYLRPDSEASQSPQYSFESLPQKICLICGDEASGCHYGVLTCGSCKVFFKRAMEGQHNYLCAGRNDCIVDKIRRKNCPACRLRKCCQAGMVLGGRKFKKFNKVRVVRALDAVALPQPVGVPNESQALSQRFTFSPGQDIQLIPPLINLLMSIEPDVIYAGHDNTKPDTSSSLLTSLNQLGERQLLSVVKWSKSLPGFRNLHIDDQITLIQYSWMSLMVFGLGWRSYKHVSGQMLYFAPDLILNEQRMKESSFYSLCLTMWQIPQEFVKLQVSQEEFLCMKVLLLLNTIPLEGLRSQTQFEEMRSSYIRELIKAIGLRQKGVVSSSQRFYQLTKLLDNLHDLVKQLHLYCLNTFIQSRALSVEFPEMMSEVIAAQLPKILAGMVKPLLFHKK

[4] = species on record: Homo sapiens; assay: Selectivity for human glucocorticoid receptor over human mineralocorticoid receptor
[5] = species on record: Homo sapiens; assay: Selectivity for human glucocorticoid receptor over human progesterone receptor

IC50 [1] [µM]	Compound	other results
> 10	CC(Cc1c[nH]c2ccccc12)NS(=O)(=O)c1ccc([N+](=O)[O-])cc1 (stereo unspecified)	–
0.48	CC(Cc1c[nH]c2ccccc12)NS(=O)(=O)c1ccc(Cl)cc1Cl (stereo unspecified)	IC50 [2]: 0.85 µM; IC50 [3]: > 2 µM
0.029	Cc1cc(C)c(S(=O)(=O)N[C@@H](C)Cc2c[nH]c3ccccc23)c(C)c1	IC50 [2]: 1 µM; Ratio IC50 [4]: 34; IC50 [3]: 1.2 µM
0.064	CC(Cc1c[nH]c2ccccc12)NS(=O)(=O)c1c(Cl)cc(Cl)cc1Cl (stereo unspecified)	IC50 [2]: 0.13 µM; Ratio IC50 [5]: 8; IC50 [3]: 0.57 µM
> 2	COC(=O)[C@H](Cc1c[nH]c2ccccc12)NS(=O)(=O)c1c(C)cc(C)cc1C	–
3.6	CC(Cc1c[nH]c2ccccc12)NS(=O)(=O)c1cc(F)c(Br)cc1F (stereo unspecified)	–
> 10	CC(Cc1c[nH]c2ccccc12)NS(=O)(=O)c1ccccc1 (stereo unspecified)	–
0.28	Cc1cccc(Cl)c1S(=O)(=O)NC(C)Cc1c[nH]c2ccccc12 (stereo unspecified)	–
1.8	Cc1cc(S(=O)(=O)NC(C)Cc2c[nH]c3ccccc23)c(C)cc1Cl (stereo unspecified)	–
4.1	CC(Cc1c[nH]c2ccccc12)NS(=O)(=O)c1cccc(Cl)c1 (stereo unspecified)	–
> 2	Cc1cc(C)c(S(=O)(=O)N[C@H](C)Cc2c[nH]c3ccccc23)c(C)c1	IC50 [2]: 0.52 µM; IC50 [3]: > 2 µM
> 10	CC(=O)Nc1ccc(S(=O)(=O)NC(C)Cc2c[nH]c3ccccc23)cc1 (stereo unspecified)	–
> 2	CC(Cc1c[nH]c2ccccc12)NC(=O)Nc1c(Cl)cc(Cl)cc1Cl (stereo unspecified)	–
> 10	Cc1cccc(S(=O)(=O)NC(C)Cc2c[nH]c3ccccc23)c1 (stereo unspecified)	–
0.079	Cc1cc(C)c(S(=O)(=O)NC(C)Cc2c[nH]c3cc(F)ccc23)c(C)c1 (stereo unspecified)	–
> 2	Cc1cc(C)c(S(=O)(=O)NC(C)Cc2cc3ccccc3[nH]2)c(C)c1 (stereo unspecified)	–
1.9	CC(Cc1c[nH]c2ccccc12)NS(=O)(=O)c1ccc(Cl)c(Cl)c1Cl (stereo unspecified)	–
> 10	COc1ccc(S(=O)(=O)NC(C)Cc2c[nH]c3ccccc23)cc1 (stereo unspecified)	–
4.6	CC(Cc1c[nH]c2ccccc12)NS(=O)(=O)c1cc(Cl)cc(Cl)c1 (stereo unspecified)	–
5.7	Cc1ccc(S(=O)(=O)NC(C)Cc2c[nH]c3ccccc23)cc1 (stereo unspecified)	–
> 2	Cc1cc(C)c(C(=O)NC(C)Cc2c[nH]c3ccccc23)c(C)c1 (stereo unspecified)	–
6.9	CC(Cc1c[nH]c2ccccc12)NS(=O)(=O)c1ccc(Cl)c(Cl)c1 (stereo unspecified)	–
0.067	CC(Cc1c[nH]c2ccccc12)NS(=O)(=O)c1c(C(C)C)cc(C(C)C)cc1C(C)C (stereo unspecified)	IC50 [2]: > 2 µM; IC50 [3]: > 2 µM
1.2	CC(Cc1c[nH]c2ccccc12)NS(=O)(=O)c1cccc(Cl)c1Cl (stereo unspecified)	–

IC50 [1] [µM]	Compound	other results
> 10	CC(Cc1c[nH]c2ccccc12)NS(=O)(=O)c1cccc(C#N)c1 (stereo unspecified)	–
0.12	Cc1cc(C)c(S(=O)(=O)NC(C)Cc2c[nH]c3c(C)cccc23)c(C)c1 (stereo unspecified)	–
1.6	CCCc1ccc(S(=O)(=O)NC(C)Cc2c[nH]c3ccccc23)cc1 (stereo unspecified)	–
1.3	CC(Cc1c[nH]c2ccccc12)NS(=O)(=O)c1cc(Cl)ccc1Cl (stereo unspecified)	–
> 2	Cc1cc(C)c(S(=O)(=O)NCCc2c[nH]c3ccccc23)c(C)c1	–
> 10	CC(Cc1c[nH]c2ccccc12)NS(=O)(=O)c1ccccc1[N+](=O)[O-] (stereo unspecified)	–
–	C[C@@H]1C[C@H]2[C@@H]3CCC4=CC(=O)C=C[C@]4(C)[C@@]3(F)[C@@H](O)C[C@]2(C)[C@@]1(O)C(=O)CO [DEXAMETHASONE]	IC50 [3]: > 2 µM
> 2	Cc1cc(C)c(S(=O)(=O)NC(CO)Cc2c[nH]c3ccccc23)c(C)c1 (stereo unspecified)	–
> 2	CC(Cc1cn(C)c2ccccc12)NS(=O)(=O)c1c(Cl)cc(Cl)cc1Cl (stereo unspecified)	–
> 10	CC(Cc1c[nH]c2ccccc12)NS(=O)(=O)c1cc(Cl)cc(Cl)c1O (stereo unspecified)	–
0.065	Cc1cc(C)c(S(=O)(=O)NC(C)Cc2c[nH]c3ccc(F)cc23)c(C)c1 (stereo unspecified)	–
0.99	CC(Cc1c[nH]c2ccccc12)NS(=O)(=O)c1cc(Cl)c(Cl)cc1Cl (stereo unspecified)	IC50 [2]: 1 µM; IC50 [3]: 0.44 µM
2.1	CC(Cc1c[nH]c2ccccc12)NS(=O)(=O)c1ccc(Cl)cc1 (stereo unspecified)	–
0.49	Cc1cc(C)c(S(=O)(=O)NC(C)Cc2c[nH]c3cc(C)ccc23)c(C)c1 (stereo unspecified)	–
0.82	Cc1c(Cl)cccc1S(=O)(=O)NC(C)Cc1c[nH]c2ccccc12 (stereo unspecified)	–
4.1	CC(Cc1c[nH]c2ccccc12)NS(=O)(=O)c1ccccc1Cl (stereo unspecified)	–
> 2	COC(=O)[C@@H](Cc1c[nH]c2ccccc12)NS(=O)(=O)c1c(C)cc(C)cc1C	–
2.6	CC(Cc1c[nH]c2ccccc12)NS(=O)(=O)c1ccc(-c2ccccc2)cc1 (stereo unspecified)	–
1.3	Cc1cc(C)c(S(=O)(=O)N(C)C(C)Cc2c[nH]c3ccccc23)c(C)c1 (stereo unspecified)	–
0.064	CCC(Cc1c[nH]c2ccccc12)NS(=O)(=O)c1c(Cl)cc(Cl)cc1Cl (stereo unspecified)	–
> 2	COc1ccc2[nH]cc(CC(C)NS(=O)(=O)c3c(Cl)cc(Cl)cc3Cl)c2c1 (stereo unspecified)	–
0.04	Cc1cc(C)c(S(=O)(=O)NC(C)Cc2c[nH]c3ccccc23)c(C)c1 (stereo unspecified)	IC50 [2]: 0.29 µM; Ratio IC50 [5]: 35; Ratio IC50 [4]: 7; IC50 [3]: 1.4 µM
0.57	Cc1[nH]c2ccccc2c1CC(C)NS(=O)(=O)c1c(Cl)cc(Cl)cc1Cl (stereo unspecified)	–

Compound	IC50 [1] [µM]	other results
CC(Cc1c[nH]c2ccccc12)NS(=O)(=O)c1c(Cl)cccc1Cl (stereo unspecified)	0.24	IC50 [2]: 1.6 µM; Ratio IC50 [4]: 6; IC50 [3]: 0.17 µM
Cc1cc(C)c(CNC(C)Cc2c[nH]c3ccccc23)c(C)c1 (stereo unspecified)	> 2	–
CC(Cc1c[nH]c2ccccc12)NS(=O)(=O)c1ccc(C(C)(C)C)cc1 (stereo unspecified)	0.735	IC50 [2]: 1.07 µM; IC50 [3]: > 2 µM
CC(Cc1c[nH]c2ccccc12)NS(=O)(=O)c1ccc(C(C)C)cc1 (stereo unspecified)	0.75	IC50 [2]: 1.4 µM; IC50 [3]: 1 µM
